# Columns and labels:
# Assay type in all cases: in vivo
# [1] = tested on: ryegrass, Italian (Italian ryegrass, Lolium multiflorum); assay: Test A greenhouse herbicide test, pre- and postemergence
# In short: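 Visual injury ratings, 0 (no effect) to 100 (complete control), versus untreated plants after roughly 10 d in a greenhouse. Compounds, formulated in a surfactant-containing non-phytotoxic solvent, were sprayed on loam–sand soil after sowing (pre) or on one- to two-leaf plants 2–10 cm tall (post).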
# [2] = tested on: blackgrass (Alopecurus myosuroides); assay: Test A greenhouse herbicide test, postemergence; conditions: for Plant response rating, Blackgrass: 125 g ai/ha; for Blackgrass plant response rating: 500 g ai/ha, 0 to 100 scale, 0 is no effect, 100 is complete control
# In short: (§1)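 Seedlings in a loam soil and sand mix received formulated compound postemergence at the one- to two-leaf stage. Greenhouse holding lasts approximately 10 d, then injury is scored visually relative to untreated plants, 0 meaning no effect and 100 complete control.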
# [3] = tested on: galium (catchweed bedstraw, Galium aparine); assay: Test A greenhouse herbicide test, postemergence; conditions: for Galium plant response rating: 0 to 100 scale, 0 is no effect, 100 is complete control
# In short: as §1
# [4] = tested on: barnyardgrass (Echinochloa crus-galli); assay: Test B flooded paddy test; conditions: 250 g ai/ha, Flood; visual rating on scale of 0 to 100 where 0 is no effect and 100 is complete control; 13 to 15 d after treatment
# In short: (§2)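 Ratings use a 0-100 visual scale, where 100 is complete control, and compare treated plants with controls after 13 to 15 d of greenhouse growth. Compound went straight into paddy water kept 3 cm over the soil surface, applied to seedlings at the 2-leaf stage.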
# [5] = tested on: ducksalad (Heteranthera limosa); assay: Test B flooded paddy test; conditions: 250 g ai/ha, Flood; visual rating on scale of 0 to 100 where 0 is no effect and 100 is complete control; 13 to 15 d after treatment
# In short: as §2
# rice (Oryza sativa) = assay: Test B flooded paddy test; conditions: 250 g ai/ha, Flood; visual rating on scale of 0 to 100 where 0 is no effect and 100 is complete control; 13 to 15 d after treatment
# In short: as §2
# [6] = tested on: sedge, umbrella (small-flower umbrella sedge, Cyperus difformis); assay: Test B flooded paddy test; conditions: 250 g ai/ha, Flood; visual rating on scale of 0 to 100 where 0 is no effect and 100 is complete control; 13 to 15 d after treatment
# In short: as §2
# [7] = tested on: foxtail, giant (giant foxtail, Setaria faberii); assay: Test C greenhouse herbicide test, pre- and postemergence
# In short: (§3)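 Greenhouse pots; pre-em on seeded loam:sand blend, post-em on 2–18 cm plants (1–4 leaf) in sphagnum peat/vermiculite medium. Formulation: non-phytotoxic solvent + surfactant. Read-out: visual % control (0–100) vs controls at 13–15 d.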
# [8] = tested on: galium (catchweed bedstraw, Galium aparine); assay: as above
# In short: as §3
# [9] = tested on: oilseed rape (Brassica napus); assay: as above
# In short: as §3
# [10] = Postemergence, 125 g ai/ha, 0 to 100 scale where 0 is no effect and 100 is complete control
# [11] = Preemergence, 125 g ai/ha, 0 to 100 scale where 0 is no effect and 100 is complete control
# [12] = Postemergence, 31 g ai/ha, scale 0 to 100 (0 no effect, 100 complete control)
# [13] = Postemergence, 125 g ai/ha, scale 0 to 100, 0 is no effect, 100 is complete control
# [14] = Postemergence, 250 g ai/ha, scale 0 to 100, 0 no effect, 100 complete control, 13 to 15 d
# [15] = Preemergence, 31 g ai/ha, scale 0 to 100, 0 is no effect, 100 is complete control
# [16] = Preemergence, 62 g ai/ha, scale 0 to 100, 0 is no effect, 100 is complete control
# [17] = Preemergence, 125 g ai/ha, scale 0 to 100, 0 is no effect, 100 is complete control
# [18] = Preemergence, 250 g ai/ha, scale 0 to 100, 0 no effect, 100 complete control
# [19] = Postemergence, 500 g ai/ha, 0 to 100 scale, 0 is no effect, 100 is complete control
# [20] = Preemergence, 500 g ai/ha, 0 to 100 scale, 0 no effect, 100 complete control
# [21] = visual rating after approx. 10 d, 0 to 100 scale (0 no effect, 100 complete control)
# [22] = 125 g ai/ha, visual rating after approx. 10 d, 0 to 100 scale (0 no effect, 100 complete control)
# [23] = Postemergence, 31 g ai/ha, 0 to 100 scale (0 no effect, 100 complete control)
# [24] = postemergence, 62 g ai/ha, scale 0 to 100, 0 no effect, 100 complete control
Structure (SMILES),"Plant response rating, Ryegrass, Italian [1, 10]","Ryegrass, Italian plant response rating [1, 11]",Blackgrass plant response rating [2],"Plant response rating, Barnyardgrass [4]","Plant response rating, Ducksalad [5]","Plant response rating, Rice (rice (Oryza sativa))","Plant response rating, Sedge, Umbrella [6]","Plant response rating, Foxtail, Giant [7, 13]","Plant response rating, Foxtail, Giant [7, 14]","Plant response rating, Foxtail, Giant [7, 15]","Plant response rating, Foxtail, Giant [7, 16]","Plant response rating, Foxtail, Giant [7, 17]","Foxtail, Giant plant response rating [7, 18]","Plant response rating, Galium [8, 13]","Plant response rating, Galium [8, 14]","Plant response rating, Galium [8, 17]","Galium plant response rating [8, 18]","Plant response rating, Oilseed Rape [9, 13]","Plant response rating, Oilseed Rape [9, 14]","Plant response rating, Oilseed Rape [9, 15]",further results
Cc1ccc2ccccc2c1-c1c(O)c(C(F)(F)F)nn(C)c1=O [Compound 102],20,60,70,0,0,0,50,60,75,30,75,85,90,95,95,95,95,5,30,0,"Plant response rating, Ryegrass, Italian ([1]; Postemergence, 500 g ai/ha, visual rating after approx. 10 d, 0 to 100 scale (0 no effect, 100 complete control)): 80; Plant response rating, Ryegrass, Italian ([1]; Preemergence, 500 g ai/ha, 0 to 100 scale where 0 is no effect and 100 is complete control): 60; Plant response rating, Blackgrass ([2]; 0 to 100 scale where 0 is no effect and 100 is complete control): 20; Plant response rating, Galium ([3]; 125 g ai/ha, 0 to 100 scale where 0 is no effect and 100 is complete control): 100; Plant response rating, Galium ([3]; 500 g ai/ha, visual rating after approx. 10 d, 0 to 100 scale (0 no effect, 100 complete control)): 100; Plant response rating, Foxtail, Giant [7, 12]: 20; Plant response rating, Galium [8, 12]: 90; Plant response rating, Oilseed Rape [9, 12]: 0; Plant response rating, Oilseed Rape [9, 16]: 10; Plant response rating, Oilseed Rape [9, 17]: 10; Oilseed Rape plant response rating [9, 18]: 35"
Cc1ccc2sc(C)c(-c3c(OC(=O)C(C)(C)C)c(C)nn(C)c3=O)c2c1 [Compound 26],60,30,70,0,0,0,0,40,65,–,–,–,–,95,95,–,–,5,5,–,"Ryegrass, Italian plant response rating [1, 19]: 90; Plant response rating, Ryegrass, Italian [1, 20]: 70; Plant response rating, Blackgrass [2, 21]: 30; Plant response rating, Galium [3, 22]: 70; Galium plant response rating ([3]; 500 g ai/ha): 90; Foxtail, Giant plant response rating [7, 23]: 15; Foxtail, Giant plant response rating [7, 24]: 25; Galium plant response rating [8, 23]: 90; Galium plant response rating [8, 24]: 95; Oilseed Rape plant response rating [9, 23]: 0; Oilseed Rape plant response rating [9, 24]: 0"
Cn1nc(Br)c(O)c(-c2cccc3ccccc23)c1=O [Compound 20],–,90,40,0,50,0,50,45,80,5,30,65,85,100,100,95,95,5,25,0,"Plant response rating, Ryegrass, Italian ([1]; Postemergence, 125 g ai/ha, visual rating after approx. 10 d, 0 to 100 scale (0 no effect, 100 complete control)): 100; Ryegrass, Italian plant response rating [1, 19]: 100; Plant response rating, Ryegrass, Italian [1, 20]: 100; Plant response rating, Blackgrass [2, 21]: 30; Plant response rating, Galium [3, 22]: 90; Galium plant response rating ([3]; 500 g ai/ha): 100; Foxtail, Giant plant response rating [7, 23]: 0; Foxtail, Giant plant response rating [7, 24]: 25; Galium plant response rating [8, 23]: 98; Plant response rating, Galium [8, 15]: 90; Plant response rating, Galium [8, 16]: 100; Galium plant response rating [8, 24]: 100; Oilseed Rape plant response rating [9, 23]: 0; Plant response rating, Oilseed Rape [9, 16]: 0; Plant response rating, Oilseed Rape [9, 17]: 0; Oilseed Rape plant response rating [9, 18]: 20; Oilseed Rape plant response rating [9, 24]: 0"

# From patent US10597388B2, “Pyridazinone herbicides” (FMC CORPORATION, priority 2014, dated 2020)
